Experimental data: paper PMC9276676, “Difluoromethylornithine (DFMO) and AMXT 1501 inhibit capsule biosynthesis in pneumococci” (Scientific Reports, 2022)
Converted amounts (≈) assume the structure as drawn. Like-named read-outs stand apart in the source and are kept apart here.

Legend:
[1] = biological target: T1, SP_0916 (arginine decarboxylase, ADC) (Streptococcus pneumoniae, UniProt A0A0H2UPK4); assay: Inhibition of decarboxylase activities of recombinant SP_0916 (LC-MS); type: biochemical; details: read-out: DFMA IC50
T1 sequence (A0A0H2UPK4 entry or part of it): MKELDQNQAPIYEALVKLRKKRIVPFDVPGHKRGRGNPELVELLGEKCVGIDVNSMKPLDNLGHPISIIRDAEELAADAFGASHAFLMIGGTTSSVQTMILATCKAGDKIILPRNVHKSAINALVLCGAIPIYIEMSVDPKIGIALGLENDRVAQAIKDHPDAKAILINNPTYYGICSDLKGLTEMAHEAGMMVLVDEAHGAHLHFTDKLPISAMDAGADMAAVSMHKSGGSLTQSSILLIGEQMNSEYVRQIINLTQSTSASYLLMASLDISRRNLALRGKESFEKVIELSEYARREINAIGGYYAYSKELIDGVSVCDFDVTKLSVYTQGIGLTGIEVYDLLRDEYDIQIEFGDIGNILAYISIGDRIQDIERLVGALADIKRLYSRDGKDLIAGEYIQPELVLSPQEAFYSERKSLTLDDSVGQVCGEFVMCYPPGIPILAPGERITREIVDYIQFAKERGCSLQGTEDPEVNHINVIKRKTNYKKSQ
From the text: We determined the impact of DFMO (ODC/ADC inhibitor) and α-difluoromethylarginine (DFMA, an ADC inhibitor) on the decarboxylase activities of SP_0916. BL21(DE3) cells expressing recombinant His tag SP_0916 were lysed with B-PER reagent buffer (Thermo Fisher Scientific, Waltham, MA, USA), lysate separated by loading unto HisPur Cobalt Spin Column (Thermo Fisher Scientific, Waltham, MA, USA), desalted using Sephadex G-25 PD-10 column (GE Healthcare, Chicago, IL, USA), and protein concentration estimated using the Pierce BCA Protein Assay kit (Thermo Fisher Scientific, Waltham, MA, USA).
SP_0916-encoded protein (0.926 µmol L^−1) was mixed with 10 mM substrate (arginine, lysine or ornithine) in the reaction mixture (500 µL reaction volume, 50 mM Tris–HCl, pH 8.0) that contains 2.5 mM MgSO4 and 0.6 mM PLP. DFMO was diluted in water to 3–900 mM and added to the reaction mixture after 5 min preincubation at 37 °C in the dark. DFMA stock was made in a similar manner but was diluted in water to 0.3–1000 µM. The enzyme and inhibitor were incubated at 37 °C for 15 min in the dark and the reaction terminated with 0.3 M perchloric acid. After incubation on ice for 15 min, the samples were neutralized with 25 µL of 10 N KOH and extracted with 1 mL of 1-butanol. The organic layer was dried under nitrogen gas and reconstituted with 100 µL of water containing Spermidine-d8 and Glucose-d7 as an internal standard. Analysis of the extracts was performed on a Surveyor LC–MS system. 5 µL of reconstitution was injected to the LC–MS system for detection of the products (agmatine, cadaverine or putrescine). We used internal standards to normalize and determine the peak intensity (area ratio) for each metabolite detected. Enzyme activity without inhibitor is referred to as a control activity. All experiments were performed in triplicate. The concentration of inhibitor that inhibited 50% of the control activity (IC50 value) was determined by varying the concentration of the indicated DFMO or DFMA and measuring the decarboxylase activity. Sigma Plot v. 12 was used to fit the curve through the points and IC50 values were interpolated from the fitted curve.

[2] = biological target: T1, SP_0916 (arginine decarboxylase, ADC); details: Km of the enzyme for the decarboxylase substrate; rows named by product; previously reported ref 18; cited from earlier work
[3] = test system: S. pneumoniae serotype 2 (D39); assay: DFMO susceptibility and growth in THY (OD600, MIC); type: cell-based, Streptococcus pneumoniae; details: Streptococcus pneumoniae
Experimental: S. pneumoniae serotypes 4 (TIGR4), 2 (D39), 19F (EF3030) and 3 (WU2) were cultured in Todd Hewitt broth supplemented with yeast extract (THY). Supplementation with DFMO ranging from 1.1 to 549 mM was carried out in triplicate in a 96-well plate and incubated at 37 °C and 5% CO2 in a Cytation™ 5 cell imaging multi-mode reader (BioTek, Winooski, VT). The change in optical density at 600 nm (OD600) was measured every hour for 24 h and used to determine the minimum inhibitory concentration (MIC) of DFMO. The optical density data was analyzed using GrowthRates 4.0 software. To determine whether DFMO at sub-MIC is bacteriostatic or lethal to pneumococcal cells, all strains were cultured in the presence or absence of 1/2 MIC DFMO. OD600 was measured every hour and CFU were enumerated on a blood agar plate (BAP) every 2 h over an 8 h incubation period.

D39 (serotype 2) capsule = assay: Total capsular polysaccharide (CPS) immunoblot with densitometry; type: cell-based, Streptococcus pneumoniae; details: D39; for total CPS (capsule) by immunoblot: DFMO 1/8 MIC 34 mM, agmatine 1/4 MIC 20 mM, AMXT 1501 1/2 MIC 7.4 µM, alone or with agmatine
Experimental: (§1) S. pneumoniae strains were cultured with DFMO and AMXT 1501 at varying final concentrations of 1/2, 1/4, and 1/8 MIC to OD600 0.2–0.3 either individually or together to estimate any additive or synergistic effects. Capsular polysaccharides (CPS) were extracted and quantified in triplicate, as described previously[26] with slight modification. Briefly, CPS was extracted in a lysis buffer (4% deoxycholate, 50 µg/mL DNAse I and 50 µg/mL RNAse A) at 37 °C for 10 min and centrifuged at 18,000×g for 10 min. The supernatant (2 µL) was spotted on a 0.2-µm-pore-size nitrocellulose membrane (Thermo Fisher Scientific, Waltham, MA, USA) and oven dried at 60 °C for 15 min. The membranes were blocked and incubated with different types of antisera for capsule detection: antisera type- 4 (for TIGR4), 2 (for D39), polyclonal (for EF3030) and 3 (for WU2) (Cedarlane, Burlington, NC, USA). A conjugated polyclonal goat anti-rabbit IgG-HRP (Agilent Technologies, Santa Clara, CA, USA) was used for enhanced chemiluminescence (ECL) detection in all the strains (Thermo Fisher Scientific, Waltham, MA, USA) and scanned using a ChemiDoc XRS+ with Image Lab software (Bio-Rad, Hercules, CA, USA). Densitometry analysis of the immunoblot was done with NIH ImageJ software.
(§2) We determined the impact of varying concentrations of DFMO (1/8 to 1/2 MIC) on CPS in all serotypes (2, 4, 19F, and 3) used in this study. […] D39 was treated with 1/8 MIC DFMO alone, 1/4 MIC agmatine (Agm) alone, a combination of 1/8 MIC DFMO and 1/4 MIC Agm, and a control without DFMO or Agm. CPS was extracted as described in the previous section and immunoblot analysis with type 2 antisera was performed to detect CPS semi-quantitatively.

S. pneumoniae D39 = type: cell-based, Streptococcus pneumoniae
Experimental: This was done to directly compare possible changes in intracellular concentrations of polyamines and capsule precursors as a result of DFMO inhibition of polyamine synthesis to the earlier report where polyamine synthesis was affected via gene deletion in TIGR4[24]. […] Cells were harvested (5000×g, 10 min, 4 °C), re-suspended in extraction solvent [40% acetonitrile, 40% methanol, 20% water with formic acid (0.1 M)] and transferred to bead-beater tubes (MP Biomedicals, Irvine, CA, USA). Cells were lysed using a FastPrep-24™ Classic (45 s, 6.5 m/s, RT, 3 times) (MP Biomedicals, Irvine, CA, USA) and incubated on ice (5 min after each spin). TIGR4 lysates were clarified (6000×g, 5 min, 4 °C), and metabolite differentiation and detection were performed using published protocols[28],[29]. Liquid chromatography-mass spectrometry-based (LC–MS) metabolomic analysis was performed with an Agilent Accurate Mass 6230 TOF coupled with an Agilent 1290 LC system using a Cogent Diamond Hydride Type C column. Briefly, the mobile phase consisted of the following: solvent A (ddH2O with 0.2% formic acid) and solvent B (acetonitrile with 0.2% formic acid). The gradient used was as follows: 0–2 min, 85% B; 3–5 min, 80% B; 6–7 min, 75% B; 8–9 min, 70% B; 10–11.1 min, 50% B; 11.1–14 min 20% B; 14.1–24 min 5% B followed by a 10 min re-equilibration period at 85% B at a flow rate of 0.4 mL/min. Mass axis dynamics was calibrated by continuous infusion of a reference mass solution using an isocratic pump. […] Metabolite identities were searched for using a mass tolerance of < 0.005 Da. Metabolite concentrations from the 5 biological replicates were normalized to biomass based on measurement of residual peptide content in individual samples using the Pierce BCA Protein Assay kit (Thermo Fisher Scientific, Waltham, MA, USA). Data were analyzed using Profinder B.07.00 software (Agilent Technologies, Santa Clara, CA, USA). Extracted molecular features detected in the mass analyzer were identified using accurate mass values and used to generate empirical molecular formulae using an in-house metabolite database that included known intermediates, amino acid precursors and polyamines and their derivatives. Statistical analysis of metabolite peak intensity data was performed using MetaboAnalyst 4.0[30]. Data were normalized (quantile), log transformed and significant fold change between WT and DFMO-treated WT were identified by Student’s t-test (p ≤ 0.05).
To measure the polyamines, glucose and glucuronic acid in D39, TSQ Quantum Access triple-quadrupole tandem mass spectrometer (Thermo Fisher Scientific, Waltham, MA, USA) equipped with acquity UPLC system (Waters, Milford, MA, USA) was operated in positive and negative ion mode. Chromatographic separation was performed on Cogent Diamond Hydride HPLC column (2.1 mm × 150 mm, 4 μm) coupled with Congent Diamond Hydride HPLC Guard column (2.0 mm × 10 mm, 4 μm). The flow rate was 500 µL/min, the sample injection volume was 10 µL, and the column temperature was at 40 °C. The mobile phase A was composed of water with 0.1% v/v formic acid, and mobile phase B was composed of acetonitrile with 0.1% v/v formic acid. The gradient condition was 0 min (5% A, 95% B), 1 min (5% A, 95% B), 4.0 min (30% A, 70% B), 6 min (95% A, 5% B), 6.5 min (95% A, 5% B), 7 min (5% A, 95% B), and 10 min (5% A, 95%B). The total run time was 10 min, and the column eluate directed into the mass spectrometer using an electrospray ionization interface in positive and negative modes. The MS conditions were set as follow: spray voltage = 3500 V, vaporizer temperature = 350 °C, sheath gas = 25 psi, auxiliary gas = 10 psi, and capillary temperature = 350 °C. Samples were run in selected reaction monitoring (SRM) mode, and the optimized MS/MS parameters for ionization are given in Table 1.

[4] = test system: EF3030 (serotype 19F) capsule; assay: Total capsular polysaccharide (CPS) immunoblot with densitometry; type: cell-based, Streptococcus pneumoniae; details: serotype 19F; AMXT 1501 at 1/2 MIC
Experimental: as §1, §2

[5] = test system: TIGR4 (serotype 4) capsule; assay: as above; type: cell-based, Streptococcus pneumoniae; details: serotype 4; AMXT 1501 at 1/2 MIC
Experimental: as §1, §2

WU2 (serotype 3) capsule = assay: as above; type: cell-based, Streptococcus pneumoniae; details: serotype 3; AMXT 1501 at 1/2 MIC
Experimental: as §1, §2

[6] = DFMO 34 mM, agmatine 20 mM, AMXT 1501 7.4 µM, p-value in bracket omitted

N=C(N)NCCC[C@](N)(C(=O)O)C(F)F [DFMA, α-difluoromethylarginine]
IC50 ([1]; arginine to agmatine, 10 mM substrate, 15 min, 37 °C): 1.1 ± 0.1 µM
IC50 ([1]; lysine to cadaverine, 10 mM substrate, 15 min, 37 °C): 56.6 ± 11.9 µM
IC50 [1]: 40.5 ± 11.6 µM

NCCCCCN [Cadaverine, cadaverine]
Km [2]: 1610 ± 280 µM

NCCCCN=C(N)N [Agmatine, agmatine]
MIC ([3]; D39, concentration equal to a quarter of the MIC, read-out: 1/4 MIC): 20000 µM (≈ 2600 µg/mL)
total CPS (capsule) by immunoblot (D39 (serotype 2) capsule): does not impact the capsule
Agmatine, fold change treated D39 /D39 (S. pneumoniae D39; [6]): 10.2 (1.61E-06)
Cadaverine, fold change treated D39 /D39 (S. pneumoniae D39; [6]): -0.3 (0.204)
Lysine, fold change treated D39 /D39 (S. pneumoniae D39; [6]): 0.1 (0.048)
N-acetyl spermidine, fold change treated D39 /D39 (S. pneumoniae D39; [6]): 0.8 (0.009)
N-carbamoyl putrescine, fold change treated D39 /D39 (S. pneumoniae D39; [6]): 9.6 (1.58E-05)
Ornithine, fold change treated D39 /D39 (S. pneumoniae D39; [6]): 0.1 (0.149)
Putrescine, fold change treated D39 /D39 (S. pneumoniae D39; [6]): 3.3 (0.004)
Spermidine, fold change treated D39 /D39 (S. pneumoniae D39; [6]): 0.6 (0.283)
Spermine, fold change treated D39 /D39 (S. pneumoniae D39; [6]): 1.4 (3.30E-04)
Km [2]: 110 ± 20 µM

CCCCCCCCCCCCCCCC(=O)NCCCC[C@@H](N)C(=O)NCCCNCCCCNCCCN [AMXT 1501]
MIC ([3]; read-out: 1/2 MIC): 7.4 µM (≈ 4.21 µg/mL)
less capsule compared to untreated controls (densitometry of immunoblots) (D39 (serotype 2) capsule; 1/2 MIC AMXT 1501 (7.4 µM)): 61%
total CPS (capsule) by immunoblot (D39 (serotype 2) capsule): Loss of capsule
impact on CPS [4]: had no impact on CPS
impact on CPS [5]: had no impact on CPS
impact on CPS (WU2 (serotype 3) capsule): had no impact on CPS
intracellular glucose (peak intensity) (S. pneumoniae D39; 1/8 MIC DFMO (34 mM), 1/2 MIC AMXT 1501 (7.4 µM)): increases glucose level
intracellular glucuronic acid (peak intensity) (S. pneumoniae D39; 1/8 MIC DFMO (34 mM), 1/2 MIC AMXT 1501 (7.4 µM), separately or in combination): significantly depleted
Agmatine, fold change treated D39 /D39 (S. pneumoniae D39; [6]): -1.5 (0.006)
Arginine, fold change treated D39 /D39 (S. pneumoniae D39; [6]): -0.1 (0.546)
Cadaverine, fold change treated D39 /D39 (S. pneumoniae D39; [6]): -1.2 (4.61E-04)
Lysine, fold change treated D39 /D39 (S. pneumoniae D39; [6]): -0.5 (3.48E-04)
N-acetyl spermidine, fold change treated D39 /D39 (S. pneumoniae D39; [6]): -1.6 (0.022)
N-carbamoyl putrescine, fold change treated D39 /D39 (S. pneumoniae D39; [6]): -1.8 (0.016)
Ornithine, fold change treated D39 /D39 (S. pneumoniae D39; [6]): -0.5 (0.004)
Putrescine, fold change treated D39 /D39 (S. pneumoniae D39; [6]): -1.4 (0.001)
Spermidine, fold change treated D39 /D39 (S. pneumoniae D39; [6]): -5.5 (0.006)
Spermine, fold change treated D39 /D39 (S. pneumoniae D39; [6]): -0.3 (0.455)

NCCCCN [Putrescine, putrescine]
Km [2]: 3550 ± 280 µM
